Measurements as given in PubChem BioAssay (NCI).
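Each compound was tested at five concentrations against cells in 96-well plates for 48 hours. GI50 is the concentration that inhibits growth by half. TGI marks complete inhibition of growth.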

Experiments:
Assay in all cases: growth of human tumour cells (NCI), 48 h
M19-MEL melanoma = tested on: M19-MEL melanoma
LXFL 529 NSCLC = tested on: LXFL 529 NSCLC
DMS 273 small cell lung = tested on: DMS 273 small cell lung
SNB-78 CNS = tested on: SNB-78 CNS
KM20L2 colon = tested on: KM20L2 colon
SW-620 colon = tested on: SW-620 colon
HCC-2998 colon = tested on: HCC-2998 colon
T-47D breast = tested on: T-47D breast
MDA-MB-231 breast = tested on: MDA-MB-231 breast

Row | Structure (SMILES) | TGI (M19-MEL melanoma) | TGI (LXFL 529 NSCLC) | TGI (DMS 273 small cell lung) | TGI (SNB-78 CNS) | TGI (KM20L2 colon) | TGI (SW-620 colon) | TGI (HCC-2998 colon) | TGI (T-47D breast) | TGI (MDA-MB-231 breast) | GI50 (T-47D breast) | GI50 (SW-620 colon) | GI50 (HCC-2998 colon) | GI50 (MDA-MB-231 breast)
1 | COc1cccc(-c2cc(=O)c3cc(C)c(C)c(C(=O)O)c3o2)c1 | > 100 µM | > 100 µM | > 100 µM | > 100 µM | > 100 µM | > 100 µM | > 100 µM |  |  |  |  |  | 
2 | Nc1nc(=O)c2[nH]cnc2n1O |  |  |  |  |  | > 100 µM |  | > 100 µM | > 100 µM |  |  |  | 
3 | COc1ccc(-c2c(-c3cc4c(c(OC)c3OC)OCO4)noc2N)cc1 |  |  |  |  |  | > 100 µM | 6.96 µM | > 100 µM | > 62.9 µM | 0.568 µM | 0.235 µM | 0.575 µM | 2.32 µM
4 | COc1ccccc1CN=C1NC(=O)/C(=C/c2ccc3ncccc3c2)S1 |  |  |  |  |  | > 25 µM | > 25 µM | 24.3 µM | > 25 µM | 8.13 µM | 4.54 µM | 17.5 µM | 11.2 µM
5 | Oc1ccccc1/C=N/Nc1nc2ccccc2s1 |  |  |  |  |  | > 100 µM | > 100 µM | > 100 µM | > 100 µM | 2.11 µM | 16.3 µM | 5.37 µM | 2.49 µM
6 | O=C(NCCN1CCOCC1)Nc1nc2ccc(Sc3nnc4ccc(-c5ccc(F)cc5)nn34)cc2s1 |  |  |  |  |  | > 100 µM | > 100 µM | > 59.6 µM | > 21.6 µM | > 21.2 µM |  | 17.3 µM | 3 µM
7 | O=C1c2cccc3c([N+](=O)[O-])ccc(c23)C(=O)N1CCCCl |  |  |  |  |  | 5.95 µM | > 10 µM | > 10 µM | > 10 µM | 2.65 µM | 2.08 µM | 5.85 µM | > 10 µM
8 | COc1ccc(NC(=O)COc2ccccc2)c(C(N)=O)c1 |  |  |  |  |  | > 100 µM | > 87.3 µM |  | > 63 µM |  | 0.511 µM | 3.2 µM | 1.91 µM
9 | Cc1cc(NCCCNc2ccnc3cc(Cl)ccc23)nc(Nc2ccc(C(=O)N3CCCCC3)cc2)n1 |  |  |  |  |  | 4.52 µM | 6.65 µM | 6.2 µM |  | 2.15 µM | 2.12 µM | 2.47 µM | 
10 | COc1cc(-c2nn(-c3ccc(NC(=O)Nc4ccc(Cl)c(C(F)(F)F)c4)cc3)cc2-c2ccncc2)ccc1Cl |  |  |  |  |  | 3.58 µM | 3.1 µM | 7.37 µM | 3.82 µM | 2.66 µM | 1.82 µM | 1.64 µM | 1.76 µM
11 | CC(=O)CC(=O)ON(C)C(C)=O | > 100 µM | > 100 µM | > 100 µM | > 100 µM | > 100 µM | > 100 µM | > 100 µM |  |  |  |  |  | 
12 | CC1=CC[C@@H]2[C@@H](CC[C@@]2(C)O)C(C)(C)[C@H]1CC[C@@H]1[C@@]2(C)CC[C@@H](O)C(C)(C)O[C@@H]2CC[C@]1(C)O |  |  |  |  |  | 85.7 µM | 33.4 µM | > 100 µM | 34.5 µM |  |  |  | 
13 | O=C(/C=C/c1ccccc1)Nc1ncc(Cc2ccccc2)s1 |  |  |  |  |  | > 100 µM | 3.42 µM | > 100 µM | 9.28 µM | 0.413 µM | 0.144 µM | 0.303 µM | 0.415 µM
14 | COc1cc(/C=C/C(=O)c2ccc(F)cc2)ccc1OCCCCOc1cc2c(cc1OC)C(=O)N1CCCC1C=N2 (stereo unspecified) |  |  |  |  |  |  | 9.61 µM | > 33.2 µM | > 21.2 µM | 1.42 µM | 0.481 µM | 0.674 µM | 1.27 µM
15 | COC1=CC(=O)c2c(O)c3c(c(O)c2C1=O)OC1(Oc2c(cc4cc(C)oc(=O)c4c2O)CC1O)C3O (stereo unspecified) |  |  |  |  |  | > 100 µM | 63.8 µM | > 100 µM | 54.5 µM |  |  |  | 
16 | O=c1ncc(I)c[nH]1 |  |  |  |  |  | > 100 µM | > 100 µM | > 100 µM | > 100 µM | > 100 µM | > 100 µM | > 100 µM | > 100 µM
17 | CCOc1ccc(NC(=O)/C(Cc2nc3ccccc3[nH]c2=O)=N\O)cc1 | > 100 µM | > 100 µM | > 100 µM | > 100 µM | > 100 µM | > 100 µM | > 100 µM |  |  |  |  |  | 
18 | O=S1(=O)OCc2ccccc21 |  |  |  |  |  | > 100 µM | > 100 µM | > 100 µM | > 100 µM |  |  |  | 
19 | CC(C)(C)n1nc(C2CC2)cc1NC(=O)Nc1ccc(Cl)cc1 |  |  |  |  |  | > 100 µM | > 100 µM | > 100 µM | > 100 µM |  |  |  | 
20 | C/C(=N\NC(=O)c1cccc(S(=O)(=O)N2CCN(C)CC2)c1)c1cc(Cl)ccc1O |  |  |  |  |  | > 94.9 µM | 28.7 µM | > 100 µM | > 100 µM | 0.634 µM | 0.705 µM | 0.571 µM | 0.667 µM
21 | Cc1cc(Cl)ccc1NC(=O)C1C(=O)C(=O)N(c2ccc(Cl)cc2C)C1=O (stereo unspecified) | > 100 µM | > 100 µM | > 100 µM | > 100 µM | > 100 µM | > 100 µM | > 100 µM |  |  |  |  |  | 
22 | NNC(=O)C(O)C(O)C(O)CO (stereo unspecified) |  |  |  |  |  | > 100 µM | > 100 µM | > 100 µM | > 100 µM |  |  |  | 
23 | O=c1[nH]ccc2nc(N3CCC(O)CC3)nc(Nc3ccc(N4CCOCC4)cc3)c12 |  |  |  |  |  | > 100 µM | > 81.2 µM | > 100 µM | > 100 µM | > 100 µM | 1.75 µM |  | 7.41 µM
24 | COc1ccc(C2CC(c3ccc4ccccc4c3)=NN2/C=C2\SC(=S)N(NC(=O)Cc3ccccc3Nc3c(Cl)cccc3Cl)C2=O)cc1 (stereo unspecified) |  |  |  |  |  | > 52.7 µM | > 33.3 µM | 98.8 µM | > 44.4 µM | 0.788 µM | 0.416 µM | 1.39 µM | 1.6 µM
25 | O=C(CC(O)c1cccnc1)CC(O)c1cccnc1 (stereo unspecified) |  |  |  |  |  | 19.6 µM | 28.6 µM | > 73.5 µM | 29.9 µM |  |  |  | 
26 | OCCNC(=S)Nc1ccc(-c2nc(N3C[C@H]4CC[C@@H](C3)O4)c3cccn3n2)cc1 |  |  |  |  |  | 13.8 µM | 18.6 µM | 0.0389 µM | 6.57 µM | < 0.01 µM | 0.203 µM | 0.0779 µM | 0.0583 µM
27 | Cc1ccccc1NC(=O)N/C(N)=N/c1nc(C)c(C)s1 |  |  |  |  |  | > 100 µM | > 100 µM | > 100 µM | > 100 µM | 0.448 µM | 0.163 µM | 0.712 µM | 1.52 µM
